Read-outs that look alike come from different tables or passages of the source.

In assay [1] the test system is isolated rat brain sodium channels (site 5). Conditions: read-out: Ki, competitive displacement assay, synaptosomal binding.
In assay [2] the test system is sodium channels. Description: Patch clamp single sodium channel currents in membrane patches. The format is cell-based. The note with it: 100 nM, n=6, FIG. 2C, 2D. The procedure:
FIG. 2A-D illustrates single sodium channel currents in patch clamp sodium channels during successive command depolarizations to −10 mV from a command potential of −100 mV in the same membrane patch before (2A) and after (2B) exposure to β-naphthoyl-PbTx-3 (100 nM, n=6). […] The average area under the β-naphthoyl-PbTx-3 curve was 71.8±18.3% less than that of PbTx-3.
FIG. 3A-E illustrates the steady state currents in four different membrane patches at a steady state command voltage of −50 mV. 3A are control traces preceeding the test with PbTx-3, and are representative of control recordings observed in all four patches during 7.2 s of continuous observation. 3B are traces for membrane patches exposed to PbTx-3 (100 nM, […]). 3C are traces for membrane patches exposed to benzoyl-PbTx-3 (100 nM, n=6). 3D are traces for membrane patches exposed to α-naphthoyl-PbTx-3 (100 nM, n=6). 3E are traces for membrane patches exposed to β-naphthoyl-PbTx-3 (100 nM, n=6). The experimental recordings are representative of 7.2 s of continuous observation in PbTx-3 or the particular derivative.

Assay [3] relates to isolated rat brain sodium channels (site 5). Conditions: Purkerson-Parker, et al., 2000; cited from earlier work.
The subject of assay [4] is sodium channels. The note with it: steady state; Purkerson-Parker, et al., 2000; cited from earlier work.
The mark [5] stands for this setting: isolated rat brain sodium channels, FIG. 1.

`C=C(CO)CC1CC(O)C2(C)OC3CC4OC5CC6(C)OC7(C)CCC8OC9CC%10(C)OC%11C(C)=CC(=O)OC%11CC%10OC9CC(C)C8OC7CC6OC5(C)CC=CC4OC3CC2O1` (centres unmarked) [PbTx-3, reference compound]: in assay [1], the inhibitory constant (Ki) (commonly the dissociation constant of the complex between target and ligand, obtained from inhibition or displacement) was determined as 3 nM.
Regarding Benzoyl-PbTx-3, in assay [1] (setting [5]), the inhibition constant (Ki) came out at 0.2 nM.
As for α-Naphthoyl-PbTx-3, in assay [1] (setting [5]), the Ki was 4.68 nM.
As for β-Naphthoyl-PbTx-3, in assay [1] (setting [5]), the inhibition constant Ki was 1.06 nM. The “average area under the ensemble average curve, less than that of PbTx-3” value in assay [2] (depolarizations to −10 mV from command potential of −100 mV) was found to be 71.8±18.3%. Further, in assay [2] (depolarizations to −10 mV from −100 mV), the “peak sodium current (ensemble averages)” value is on record as “reduction in peak sodium current”. In addition, the “displacement of native toxin from binding site” value in assay [3] was “displaces the native toxin from its binding site”. Also, the “opening of sodium channels” value in assay [4] is on record as “does not elicit opening of sodium channels in steady state”.

Source of the values: US20050124685A1, “Polyether brevetoxin derivatives as a treatment for neurotoxic shellfish poisoning and ciguatera fish poisoning” (priority 2003, published 2005).
